# Laboratory results as given in PubChem BioAssay AID1963971 (Molecular Pharmacology Branch, DTP, NCI, 2024).
# Where “and” joins values, the source holds several entries; their conditions need not be identical. Equal values may be shown once.
# System: 953936-095-R-J2-PDC spheroids with HUVEC/MSC, viability
# Assay: Anticancer human tumor 953936-095-R-J2-PDC patient-derived cervical squamous cell carcinoma cell line growth inhibition [PI3K]
# Details: for viability, T/C: stronger effect = lower value
# Procedure, shortened: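 High-throughput combination screen: PI3K inhibitors crossed with targeted small molecules on complex spheroids of tumor cells, HUVEC and MSCs at 37 degrees C, 5% CO2. Top concentration was at or near clinical Cmax (otherwise 10 microM), with half-log decrements.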
# 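Also: spheroids exposed to compounds for seven days before read-out.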
structure (smiles),measurement,setting,value
CC(=O)c1c(C)c2cnc(Nc3ccc(N4CCNCC4)cn3)nc2n(C2CCCC2)c1=O + CC(Nc1ncnc2nc[nH]c12)c1cc2cccc(Cl)c2c(=O)n1-c1ccccc1,IC50,"curve of first compound, second compound 0.0316 µM",> 100 nM
same,IC50,"curve of first compound, second compound 0.1 µM",> 100 nM
same,IC50,"curve of first compound, second compound 0.316 µM",> 100 nM
same,IC50,"curve of first compound, second compound 1 µM",> 100 nM
same,IC50,"curve of first compound, second compound 3.16 µM",> 100 nM
same,IC50,"curve of first compound, second compound 10 µM",> 100 nM
same,"viability, T/C","second compound 0.0316 µM, first compound 0.000316 µM",91.6%
same,"viability, T/C","second compound 0.0316 µM, first compound 0.001 µM",99.4%
same,"viability, T/C","second compound 0.0316 µM, first compound 0.00316 µM",105%
same,"viability, T/C","second compound 0.0316 µM, first compound 0.01 µM",93.9%
same,"viability, T/C","second compound 0.0316 µM, first compound 0.0316 µM",113%
same,"viability, T/C","second compound 0.0316 µM, first compound 0.1 µM",99.4%
same,"viability, T/C","second compound 0.1 µM, first compound 0.000316 µM",93%
same,"viability, T/C","second compound 0.1 µM, first compound 0.001 µM",96.4%
same,"viability, T/C","second compound 0.1 µM, first compound 0.00316 µM",105%
same,"viability, T/C","second compound 0.1 µM, first compound 0.01 µM",88.2%
same,"viability, T/C","second compound 0.1 µM, first compound 0.0316 µM",99.8%
same,"viability, T/C","second compound 0.1 µM, first compound 0.1 µM",92.1%
same,"viability, T/C","second compound 0.316 µM, first compound 0.000316 µM",97.8%
same,"viability, T/C","second compound 0.316 µM, first compound 0.001 µM",92.8%
same,"viability, T/C","second compound 0.316 µM, first compound 0.00316 µM",90.7%
same,"viability, T/C","second compound 0.316 µM, first compound 0.01 µM",86.5%
same,"viability, T/C","second compound 0.316 µM, first compound 0.0316 µM",103%
same,"viability, T/C","second compound 0.316 µM, first compound 0.1 µM",83%
same,"viability, T/C","second compound 1 µM, first compound 0.000316 µM",107%
same,"viability, T/C","second compound 1 µM, first compound 0.001 µM",98.4%
same,"viability, T/C","second compound 1 µM, first compound 0.00316 µM",85.6%
same,"viability, T/C","second compound 1 µM, first compound 0.01 µM",94%
same,"viability, T/C","second compound 1 µM, first compound 0.0316 µM",81.5%
same,"viability, T/C","second compound 1 µM, first compound 0.1 µM",80.2%
same,"viability, T/C","second compound 3.16 µM, first compound 0.000316 µM",81.4%
same,"viability, T/C","second compound 3.16 µM, first compound 0.001 µM",74.4%
same,"viability, T/C","second compound 3.16 µM, first compound 0.00316 µM",78.2%
same,"viability, T/C","second compound 3.16 µM, first compound 0.01 µM",83.5%
same,"viability, T/C","second compound 3.16 µM, first compound 0.0316 µM",74.8%
same,"viability, T/C","second compound 3.16 µM, first compound 0.1 µM",70.7%
same,"viability, T/C","second compound 10 µM, first compound 0.000316 µM",59.9%
same,"viability, T/C","second compound 10 µM, first compound 0.001 µM",68.6%
same,"viability, T/C","second compound 10 µM, first compound 0.00316 µM",55.5%
same,"viability, T/C","second compound 10 µM, first compound 0.01 µM",69.7%
same,"viability, T/C","second compound 10 µM, first compound 0.0316 µM",65.1%
same,"viability, T/C","second compound 10 µM, first compound 0.1 µM",51.3%
Cn1ncc(Cl)c1-c1cc(C(=O)NC(CN)Cc2cccc(F)c2)sc1Cl (centres undefined),"viability, T/C",compound 0.0316 µM,93.5% [middle of 4 runs]
same,"viability, T/C",compound 0.1 µM,82.7% [middle of 4 runs]
same,"viability, T/C",compound 0.316 µM,64.7% [middle of 4 runs]
same,"viability, T/C",compound 1 µM,37.6% and 37.7% (2×) and 35.5%
same,"viability, T/C",compound 3.16 µM,21.1% [middle of 4 runs]
same,"viability, T/C",compound 10 µM,13.2% and 12.6% (2×) and 13.7%
same,IC50,curve of compound,597 nM [middle of 4 runs]
